# Test system: HCV 1b genotype
# Assay: HCV Replicon assay (HCV-neo replicon cells), 1b genotype
# Assay type: cell-based
# Conditions: Hepatitis C virus; HCV 1b genotype replicon; value given as range class; read-out: 1b EC50 (in μM or range)
# Procedure, shortened: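 HCV-neo replicon cells, wild-type and carrying NS5A mutations, used to measure compound inhibition of replication; luciferase reporter replicon formats also applied.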
row,Structure (SMILES),EC50 [µM]
1,"COC(=O)N[C@H](C(=O)N1CCC[C@H]1c1nc(CCc2ccc(CCc3cnc([C@@H]4CCCN4C(=O)[C@@H](NC(=O)OC)[C@@H](C)OC)[nH]3)cc2)c[nH]1)[C@@H](C)OC [Example 44, methyl ((1S,2R)-2-methoxy-1-(((2S)-2-(4-(2-(4-(2-(2-((2S)-1-(N-(methoxycarbonyl)-O-methyl-L-threonyl)-2-pyrrolidinyl)-1H-imidazol-4-yl)ethyl)phenyl)ethyl)-1H-imidazol-2-yl)-1-pyrrolidinyl)carbonyl)propyl)carbamate]",0.01 to 10
2,"COC(=O)N[C@@H](C(=O)N1CCC[C@H]1c1ncc(C#Cc2ccc(-c3cnc([C@@H]4CCCN4C(=O)[C@H](NC(=O)OC)c4ccccc4)[nH]3)cc2)[nH]1)c1ccccc1 [Example M1, Methyl ((1R)-2-((2S)-2-(4-(4-((2-((2S)-1-((2R)-2-((methoxycarbonyl)amino)-2-phenylacetyl)-2-pyrrolidinyl)-1H-imidazol-4-yl)ethynyl)phenyl)-1H-imidazol-2-yl)-1-pyrrolidinyl)-2-oxo-1-phenylethyl)carbamate]",< 0.001
3,"COC(=O)N[C@@H](C(=O)N1CCC[C@H]1c1ncc(CCc2ccc(-c3cnc([C@@H]4CCCN4C(=O)[C@H](NC(=O)OC)c4ccccc4)[nH]3)cc2)[nH]1)c1ccccc1 [Example M2, Methyl ((1R)-2-((2S)-2-(4-(4-(2-(2-((2S)-1-((2R)-2-((methoxycarbonyl)amino)-2-phenylacetyl)-2-pyrrolidinyl)-1H-imidazol-4-yl)ethyl)phenyl)-1H-imidazol-2-yl)-1-pyrrolidinyl)-2-oxo-1-phenylethyl)carbamate]",< 0.001
4,"CN(C)[C@@H](C(=O)N1CCC[C@H]1c1ncc(CCc2ccc(-c3cnc([C@@H]4CCCN4C(=O)[C@@H](c4ccccc4)N(C)C)[nH]3)cc2)[nH]1)c1ccccc1 [Example M3, [(1R)-2-((2S)-2-(4-(4-(2-(2-((2S)-1-((2R)-2-(Dimethylamino)-2-phenylacetyl)-2-pyrrolidinyl)-1H-imidazol-4-yl)ethyl)phenyl)-1H-imidazol-2-yl)-1-pyrrolidinyl)-N,N-dimethyl-2-oxo-1-phenylethanamine]]",0.001 to 0.01
5,"COC(=O)N[C@H](C(=O)N1CCC[C@H]1c1ncc(C#Cc2ccc(C#Cc3cnc([C@@H]4CCCN4C(=O)[C@@H](NC(=O)OC)C(C)C)[nH]3)cc2)[nH]1)C(C)C [Example M4, Methyl((1S)-1-(((2S)-2-(4-((4-((2-((2S)-1-((2S)-2-((methoxycarbonyl)amino)-3-methylbutanoyl)-2-pyrrolidinyl)-1H-imidazol-4-yl)ethynyl)phenyl)ethynyl)-1H-imidazol-2-yl)-1-pyrrolidinyl)carbonyl)-2-methylpropyl)carbamate]",< 0.001
6,"COC(=O)N[C@H](C(=O)N1CCC[C@H]1c1nc(C#Cc2ccc(C#Cc3c[nH]c([C@@H]4CCCN4C(=O)[C@@H](NC(=O)OC)[C@@H](C)OC)n3)cc2)c[nH]1)[C@@H](C)OC [Example M5, Methyl ((1S,2R)-2-methoxy-1-(((2S)-2-(4-((4-((2-((2S)-1-(N-(methoxycarbonyl)-O-methyl-L-threonyl)-2-pyrrolidinyl)-1H-imidazol-4-yl)ethynyl)phenyl)ethynyl)-1H-imidazol-2-yl)-1-pyrrolidinyl)carbonyl)propyl)carbamate]",< 0.001
7,"COC(=O)N[C@@H](C)C(=O)N1CCC[C@H]1c1nc(C#Cc2ccc(C#Cc3c[nH]c([C@@H]4CCCN4C(=O)[C@H](C)NC(=O)OC)n3)cc2)c[nH]1 [Example M6, Methyl ((1S)-2-((2S)-2-(4-((4-((2-((2S)-1-(N-(methoxycarbonyl)-L-alanyl)-2-pyrrolidinyl)-1H-imidazol-4-yl)ethynyl)phenyl)ethynyl)-1H-imidazol-2-yl)-1-pyrrolidinyl)-1-methyl-2-oxoethyl)carbamate]",0.001 to 0.01
8,"COCC[C@H](NC(=O)OC)C(=O)N1CCC[C@H]1c1nc(C#Cc2ccc(C#Cc3c[nH]c([C@@H]4CCCN4C(=O)[C@H](CCOC)NC(=O)OC)n3)cc2)c[nH]1 [Example M7, Methyl ((1S)-3-methoxy-1-(((2S)-2-(4-((4-((2-((2S)-1-(N-(methoxycarbonyl)-O-methyl-L-homoseryl)-2-pyrrolidinyl)-1H-imidazol-4-yl)ethynyl)phenyl)ethynyl)-1H-imidazol-2-yl)-1-pyrrolidinyl)carbonyl)propyl)carbamate]",< 0.001
